From patent publication US11014911B2, “CDK2 inhibitors” (Pfizer Inc., priority 2019, dated 2021) come the findings set out here.

The target in test [1] is CDK2/Cyclin E1 full length (Homo sapiens (Human), UniProt P24941). Kind of test: CDK2/Cyclin E1 full length mobility shift assay. The test is classed as biochemical.
Test [2] deals with GSK3β (H350L) (Homo sapiens (Human), UniProt P49841). The note with it: read-out: GSK3β Ki.
Method: The assay was initiated with the addition of ATP, following 15 minutes pre-incubation of enzyme and inhibitor at room temperature in the reaction mixture. The reaction was stopped after 30 minutes at room temperature by the addition of 50 μL of 80 mM EDTA.

Molecules are shown by their SMILES. pKi: −log10 of the molar value. Where only a bound is given, the exact number is not on record here.

Sequence of GSK3β (H350L) (P49841 whole entry, stated change not applied): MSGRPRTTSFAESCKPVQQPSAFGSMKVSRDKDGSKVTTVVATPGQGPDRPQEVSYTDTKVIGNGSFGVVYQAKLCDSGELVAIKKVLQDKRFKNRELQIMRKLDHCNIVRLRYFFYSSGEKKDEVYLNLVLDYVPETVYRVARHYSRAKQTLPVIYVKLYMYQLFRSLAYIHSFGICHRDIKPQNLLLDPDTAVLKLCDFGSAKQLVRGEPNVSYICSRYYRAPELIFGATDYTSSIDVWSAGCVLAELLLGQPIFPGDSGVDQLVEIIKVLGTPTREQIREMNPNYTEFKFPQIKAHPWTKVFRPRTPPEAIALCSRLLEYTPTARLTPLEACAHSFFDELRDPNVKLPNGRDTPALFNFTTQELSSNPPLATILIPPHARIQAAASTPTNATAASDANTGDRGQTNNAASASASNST

In the case of `Cc1cnc(CC(=O)Nc2cc([C@H]3CC[C@@H](OC(=O)N[C@@H](C)[C@@H](C)F)C3)[nH]n2)o1` [Example 383, (1R,3S)-3-(3-{[(5-methyl-1,3-oxazol-2-yl)acetyl]amino}-1H-pyrazol-5-yl)cyclopentyl [(2S,3R)-3-fluorobutan-2-yl]carbamate], the results for the negative logarithm of the Ki (pKi) in test [1] and in test [2] were 8.87 and 7.36, respectively.
Take `C[C@H](CC(F)(F)F)NC(=O)O[C@@H]1CC[C@H](c2cc(NC(=O)Cc3cnn(C)c3)n[nH]2)C1` [Example 394, (1R,3S)-3-(3-{[(1-methyl-1H-pyrazol-4-yl)acetyl]amino}-1H-pyrazol-5-yl)cyclopentyl [(2R)-4,4,4-trifluorobutan-2-yl]carbamate]: the negative logarithm of the Ki (pKi) in test [1] is 9.38; in test [2], 7.37.
As for `CC[C@H](C)CNC(=O)O[C@@H]1CC[C@H](c2cc(NC(=O)Cc3ccno3)n[nH]2)C1` [Example 415, (1R,3S)-3-{3-[(1,2-oxazol-5-ylacetyl)amino]-1H-pyrazol-5-yl}cyclopentyl[(2S)-2-methylbutyl]carbamate], the pKi in test [1] was 8.83; in test [2], 7.58.
As for `CC[C@H](C)CNC(=O)O[C@@H]1CC[C@H](c2cc(NC(=O)Cc3cnc(C)s3)n[nH]2)C1` [Example 417, (1R,3S)-3-(3-{[(2-methyl-1,3-thiazol-5-yl)acetyl]amino}-1H-pyrazol-5-yl)cyclopentyl [(2S)-2-methylbutyl]carbamate], the pKi was 9.09 in test [1] and 7.90 in test [2].
For the compound `Cc1ccc(CC(=O)Nc2cc([C@H]3CC[C@@H](OC(=O)NC4(C)CC4)C3)[nH]n2)nc1` [Example 424, (1R,3S)-3-(3-{[(5-methylpyridin-2-yl)acetyl]amino}-1H-pyrazol-5-yl)cyclopentyl (1-methylcyclopropyl)carbamate], the pKi is 9.29 in test [1] and 7.84 in test [2].
As to `Cc1cccc(CC(=O)Nc2cc([C@H]3CC[C@@H](OC(=O)NC4(C)CC4)C3)[nH]n2)n1` [Example 426, (1R,3S)-3-(3-{[(6-methylpyridin-2-yl)acetyl]amino}-1H-pyrazol-5-yl)cyclopentyl (1-methylcyclopropyl)carbamate], the pKi in test [1] was 9.28; in test [2], 7.77.
In the same order, the values of `Cc1cnc(CC(=O)Nc2cc([C@H]3CC[C@@H](OC(=O)NC4(C)CC4)C3)[nH]n2)cn1` [Example 428, (1R,3S)-3-(3-{[(5-methylpyrazin-2-yl)acetyl]amino}-1H-pyrazol-5-yl)cyclopentyl (1-methylcyclopropyl)carbamate] are 9.40 and 7.52.
As to `COc1ccc(CC(=O)Nc2cc([C@H]3CC[C@@H](OC(=O)NC4(C)CC4)C3)[nH]n2)nc1` [Example 433, (1R,3S)-3-(3-{[(5-methoxypyridin-2-yl)acetyl]amino}-1H-pyrazol-5-yl)cyclopentyl (1-methylcyclopropyl)carbamate], the negative logarithm of the Ki (pKi) was 9.30 in test [1] and 7.77 in test [2].
In the same order, the values of `COc1cccc(CC(=O)Nc2cc([C@H]3CC[C@@H](OC(=O)NC4(C)CC4)C3)[nH]n2)n1` [Example 434, (1R,3S)-3-(3-{[(6-methoxypyridin-2-yl)acetyl]amino}-1H-pyrazol-5-yl)cyclopentyl (1-methylcyclopropyl)carbamate] are 9.32 and 7.40.
`CC1(NC(=O)O[C@@H]2CC[C@H](c3cc(NC(=O)Cc4ccc(Cl)cn4)n[nH]3)C2)CC1` [Example 437, (1R,3S)-3-(3-{[(5-chloropyridin-2-yl)acetyl]amino}-1H-pyrazol-5-yl)cyclopentyl (1-methylcyclopropyl)carbamate]: the negative logarithm of the Ki (pKi) is 9.29 in test [1] and 7.80 in test [2].
Take `COc1ccc(S(C)(=O)=O)c(CC(=O)Nc2cc([C@H]3CC[C@@H](OC(=O)NC4(C)CC4)C3)[nH]n2)c1` [Example 447, (1R,3S)-3-[3-({[5-methoxy-2-(methylsulfonyl)phenyl]acetyl}amino)-1H-pyrazol-5-yl]cyclopentyl (1-methylcyclopropyl)carbamate]: the pKi is 9.44 in test [1] and below 7.32 in test [2].
As for `Cc1cnc(CC(=O)Nc2cc([C@H]3CC[C@@H](OC(=O)NC4(CC(F)(F)F)CC4)C3)[nH]n2)cn1` [Example 455, (1R,3S)-3-(3-{[(5-methylpyrazin-2-yl)acetyl]amino}-1H-pyrazol-5-yl)cyclopentyl [1-2,2,2-trifluoroethyl)cyclopropyl] carbamate], the negative logarithm of the Ki (pKi) in test [1] is 9.33; in test [2], 7.67.
For the compound `O=C(Cc1ccno1)Nc1cc([C@H]2CC[C@@H](OC(=O)NC3CCCC3)C2)[nH]n1` [Example 460, (1R,3S)-3-{3-[(1,2-oxazol-5-ylacetyl)amino]-1H-pyrazol-5-yl}cyclopentyl cyclopentylcarbamate], the pKi is 8.79 in test [1] and 7.40 in test [2].
In the same order, the values of `Cc1ncc(CC(=O)Nc2cc([C@H]3CC[C@@H](OC(=O)N[C@@H]4CCC[C@@H]4C)C3)[nH]n2)s1` [Example 463, (1R,3S)-3-(3-{[(2-methyl-1,3-thiazol-5-yl)acetyl]amino}-1H-pyrazol-5-yl)cyclopentyl [(1R,2S)-2-methylcyclopentyl]carbamate] are 9.26 and 7.55.
In the case of `COc1ccc(CC(=O)Nc2cc([C@@H]3CC[C@H](OC(=O)NC4CCOCC4)C3)[nH]n2)cc1` [Example 501, (1S,3R)-3-(3-{[(4-methoxyphenyl)acetyl]amino}-1H-pyrazol-5-yl)cyclopentyl tetrahydro-2H-pyran-4-ylcarbamate], the figures for the negative-log Ki (pKi) in test [1] and in test [2] were 8.84 and 7.90, respectively.
`Cn1cc(CC(=O)Nc2cc([C@H]3CC[C@@H](OC(=O)NC4(C)CCOCC4)C3)[nH]n2)cn1` [Example 506, (1R,3S)-3-(3-{[(1-methyl-1H-pyrazol-4-yl)acetyl]amino}-1H-pyrazol-5-yl)cyclopentyl (4-methyltetrahydro-2H-pyran-4-yl)carbamate]: the pKi in test [1] is 9.12; in test [2], 7.11.
For `COc1ncc(CC(=O)Nc2cc([C@H]3CC[C@@H](OC(=O)NC4(C)CCOCC4)C3)[nH]n2)s1` [Example 509, (1R,3S)-3-(3-{[(2-methoxy-1,3-thiazol-5-yl)acetyl]amino}-1H-pyrazol-5-yl)cyclopentyl (4-methyltetrahydro-2H-pyran-4-yl)carbamate], the negative-log Ki (pKi) is 9.30 in test [1] and 7.52 in test [2].
Take `Cc1cc(CC(=O)Nc2cc([C@@H]3CC[C@H](OC(=O)N[C@H]4CC[C@@H](O)CC4)C3)[nH]n2)ccn1` [Example 544, (1S,3R)-3-(3-{[(2-methylpyridin-4-yl)acetyl]amino}-1H-pyrazol-5-yl)cyclopentyl (cis-4-hydroxycyclohexyl)carbamate]: the negative-log Ki (pKi) is 9.27 in test [1] and 8.71 in test [2].
For the compound `Cc1ccc(CC(=O)Nc2cc([C@@H]3CC[C@H](OC(=O)N[C@H]4CC[C@@H](O)CC4)C3)[nH]n2)cn1` [Example 545, (1S,3R)-3-(3-{[(6-methylpyridin-3-yl)acetyl]amino}-1H-pyrazol-5-yl)cyclopentyl (cis-4-hydroxycyclohexyl)carbamate], the figures for the pKi in test [1] and in test [2] were 9.41 and 8.66, respectively.
Take `Cc1ccc(CC(=O)Nc2cc([C@@H]3CC[C@H](OC(=O)N[C@H]4CC[C@@H](O)CC4)C3)[nH]n2)nc1` [Example 546, (1S,3R)-3-(3-{[(5-methylpyridin-2-yl)acetyl]amino}-1H-pyrazol-5-yl)cyclopentyl (cis-4-hydroxycyclohexyl)carbamate]: the pKi in test [1] is 8.73; in test [2], 8.45.
As to `Cc1cc(CC(=O)Nc2cc([C@@H]3CC[C@H](OC(=O)N[C@H]4CC[C@H](O)CC4)C3)[nH]n2)ccn1` [Example 547, (1S,3R)-3-(3-{[(2-methylpyridin-4-yl)acetyl]amino}-1H-pyrazol-5-yl)cyclopentyl (trans-4-hydroxycyclohexyl)carbamate], the values for the pKi in test [1] and in test [2] were 9.21 and 8.44, respectively.
For `Cc1ccc(CC(=O)Nc2cc([C@@H]3CC[C@H](OC(=O)N[C@H]4CC[C@H](O)CC4)C3)[nH]n2)cn1` [Example 548, (1S,3R)-3-(3-{[(6-methylpyridin-3-yl)acetyl]amino}-1H-pyrazol-5-yl)cyclopentyl (trans-4-hydroxycyclohexyl)carbamate], in that order: 9.41 and 8.68.
Turning to `Cc1ccc(CC(=O)Nc2cc([C@@H]3CC[C@H](OC(=O)N[C@H]4CC[C@H](O)CC4)C3)[nH]n2)nc1` [Example 549, (1S,3R)-3-(3-{[(5-methylpyridin-2-yl)acetyl]amino}-1H-pyrazol-5-yl)cyclopentyl (trans-4-hydroxycyclohexyl)carbamate], the figures for the pKi in test [1] and in test [2] were 9.05 and 8.49, respectively.
As for `Cc1ncc(CC(=O)Nc2cc([C@@H]3CC[C@H](OC(=O)N[C@H]4CC[C@@H](O)CC4)C3)[nH]n2)s1` [Example 550, (1S,3R)-3-(3-{[(2-methyl-1,3-thiazol-5-yl)acetyl]amino}-1H-pyrazol-5-yl)cyclopentyl (cis-4-hydroxycyclohexyl)carbamate], the negative-log Ki (pKi) is 9.44 in test [1] and 8.51 in test [2].
For `Cc1ncc(CC(=O)Nc2cc([C@@H]3CC[C@H](OC(=O)N[C@H]4CC[C@H](O)CC4)C3)[nH]n2)s1` [Example 551, (1S,3R)-3-(3-{[(2-methyl-1,3-thiazol-5-yl)acetyl]amino}-1H-pyrazol-5-yl)cyclopentyl (trans-4-hydroxycyclohexyl)carbamate], the negative-log Ki (pKi) in test [1] was 9.47; in test [2], 8.53.
As to `COc1cc(CC(=O)Nc2cc([C@@H]3CC[C@H](OC(=O)N[C@H]4CC[C@@H](O)CC4)C3)[nH]n2)ccn1` [Example 552, (1S,3R)-3-(3-{[(2-methoxypyridin-4-yl)acetyl]amino}-1H-pyrazol-5-yl)cyclopentyl (cis-4-hydroxycyclohexyl)carbamate], the pKi in test [1] was 9.54; in test [2] it was 8.62.
For `COc1ccc(CC(=O)Nc2cc([C@@H]3CC[C@H](OC(=O)N[C@H]4CC[C@@H](O)CC4)C3)[nH]n2)nc1` [Example 554, (1S,3R)-3-(3-{[(5-methoxypyridin-2-yl)acetyl]amino}-1H-pyrazol-5-yl)cyclopentyl (cis-4-hydroxycyclohexyl)carbamate], in that order: 8.75 and 8.29.
